# Conditions: buffer; pH 7.4; 200.0 µM
row,SMILES,solubility kinetic [µg/mL]
1,Cc1ccc(OCC(=O)Nc2ccon2)c([N+](=O)[O-])c1,4.5
2,COc1ccc(C)cc1Nc1nc(N)c2ccccc2n1.Cl,47.1
3,CN(C)c1ccc(N=Cc2cccn2C)cc1,> 34.1
4,COc1ccc(NC(=O)c2cccnc2SC)cc1OC,19.2
5,CC(=O)c1c(C)nc(Nc2nc(C)c3cc(C)ccc3n2)nc1C,> 48.2
6,COc1ccc(C(=O)Nc2ccc(Nc3ccccc3)cc2)cc1[N+](=O)[O-],< 0.3
7,O=C(Nc1cccnc1Cl)c1cccs1,> 35.8
8,Cc1nc2ccc(NC(=O)C3=NN(C)C(=O)CC3)cc2s1,> 45.4
9,C=CCNc1nc2ccccc2c(=O)[nH]1,29.1
10,NC(=O)COC(=O)c1ccccc1OCc1ccc(Cl)cc1,7.2
11,CC1CCCCC12NC(=O)N(CC(=O)NCc1ccccc1Cl)C2=O (stereo not drawn),> 54.6
12,Cc1ccc(C(=O)Nc2cccc(C(=O)NC3CCCCC3)c2)cc1,< 0.4
13,COc1cc(NC(=O)C2C3CCC(O3)C2C(=O)O)cc(OC)c1 (stereo not drawn),> 48.2
14,O=C1CNC(=S)N1Cc1ccccc1Cl,> 36.1
15,O=C(CSCc1ccc(Cl)cc1)NCCSCc1ccco1,36.3
16,Cc1cnc(C(=O)OCC(=O)N(CC(C)C)C2CCS(=O)(=O)C2)cn1 (stereo not drawn),> 55.4
17,CN(Cc1ccc(F)cc1)C(=O)CCc1nnc(-c2ccccc2)o1,> 50.9
18,CCCC(=O)Nc1ccccc1NC(=O)c1ccc2c(c1)OCO2,> 49
19,O=c1[nH]c2ccsc2c(=O)n1CCO,> 31.8
20,CC1CCN(C(=O)CSc2nnc(N)s2)CC1,> 40.9
21,COc1ccc(CSc2nc3ccccc3c(=O)[nH]2)cc1F,1.3
22,Cn1ncc(Br)c1C(=O)N1CCCC1,> 38.7
23,CC1=N/C(=C/c2cc(Br)cc(Br)c2O)C(=O)O1,2.8

row,SMILES,solubility kinetic [µg/mL]
1,Cc1cnc(C(=O)OCC(=O)N2CC(C)CC(C)C2)cn1 (stereo not drawn),43.3
2,COc1ccc(CCNC(=O)c2cc(=O)n(C)c(=O)n2C)cc1OC,48.7
3,COc1ccc(N2C(=O)CSC2c2ccc(F)c(F)c2)cc1 (stereo not drawn),> 48.2
4,CN(CC(=O)N1CCN(Cc2ccccc2)CC1)C(=O)Cc1ccc(Cl)c(Cl)c1,61.7
5,COc1cc(OC)c(OC)cc1CN1CCC(O)CC1.Cl,> 47.7
6,COc1cc(/C=N/NC(=O)c2ccccc2)ccc1O,> 40.5
7,NC(CO)(CO)COCc1ccccc1,> 31.7
8,Nc1cccc(NC(=O)CN2CCOCC2)c1,> 35.3
9,Cl.Fc1ccc(CNC2CN3CCC2CC3)cc1 (stereo not drawn),> 46.1
10,CN(C)C(=S)Nc1ccc(Cc2ccncc2)cc1,36.5
11,O=C(CSc1ncnc2nc[nH]c12)c1ccc([N+](=O)[O-])cc1,2.6
12,CCNC(=S)NCc1ccc(OC)c(OC)c1,> 38.2
13,O=C(Nc1ccccc1C(F)(F)F)c1ccc2nccnc2c1,> 47.6
14,COc1ccc(NC(=S)NCc2cccnc2)cc1OC,> 45.5
15,CCOc1ccc(NC(=O)C2CC(=O)N(Cc3ccco3)C2)cc1 (stereo not drawn),> 49.3
16,COc1ccccc1CNC(=O)COC(=O)Cc1cccs1,> 47.9
17,COc1ccc(C(=O)NCC2CCCO2)cc1OC (stereo not drawn),35.7
18,O=C(O)c1ccccc1N(Cc1ccccc1)C(=O)COc1ccccc1,> 54.2
19,CNCc1c(OCc2ccc(F)cc2)ccc2ccccc12.Cl,> 49.8
20,O=S(=O)(Nc1ccccc1N1CCOCC1)c1cccs1,4.2
21,O=C(Nc1ccccc1Cl)c1cc[n+]([O-])cc1,> 37.3
22,COCCSc1ccccc1C(=O)Nc1ccc(Cl)cc1,44.1
23,Cn1c(Cc2ccccc2)nnc1SCC(=O)NCCc1ccccc1,> 55

row,SMILES,solubility kinetic [µg/mL]
1,OCCNCCc1c[nH]c2ccc(OCc3ccccc3)cc12,> 46.6
2,COC(=O)c1csc(S(=O)(=O)N2CCOCC2)c1OC,> 48.2
3,CC(=O)NC(C)(CC(=O)c1ccccc1)c1ccccc1 (stereo not drawn),> 42.2
4,O=C(COC(=O)c1cnc(Cl)c(Cl)c1)Nc1cccc(S(=O)(=O)N2CCOCC2)c1,38.9
5,COc1ccc(C(=O)N2CCCC(Nc3ccc(C)c(C)c3)C2)cc1 (stereo not drawn),40.5
6,COc1cc(C)cc(CN2CCC(Cc3ccccc3)CC2)c1O,44.5
7,O=C(Nc1ccc2c(c1)OCCO2)c1ccc(Cl)cc1Cl,3.5
8,O=C(c1cc2ccccc2cc1O)N1CCCC1,> 36.2
9,O=C(O)c1ccc(N2CCc3ccccc32)c([N+](=O)[O-])c1,> 42.6
10,COc1cccc(C(O)c2cnc(C(C)C)n2C)c1 (stereo not drawn),> 39.1
11,COc1ccc(N2C(=O)CCC2=O)c(OC)c1,33.8
12,O=C(c1cc(-c2ccc(O)cc2)on1)N1CCCCCC1,> 42.9
13,Cc1ccc2nc(N3CCOCC3)c(C=O)cc2c1,25.8
14,Brc1ccsc1-c1csc(-c2ccncc2)n1,2.7
15,CCNC(=S)N1CCN(C(=O)C(Cc2ccccc2)NC(C)=O)CC1 (stereo not drawn),> 54.4
16,CCOC(=O)c1c(O)c2ccccc2n(C)c1=O,> 37.1
17,Cc1ccc(C(=O)NCC(c2ccco2)N2CCOCC2)cc1 (stereo not drawn),> 47.2
18,CCCCN(C(=O)c1c(C)noc1C)c1c(N)n(CCC)c(=O)[nH]c1=O,18.6
19,COC(=O)C(C)Oc1ccc(-c2nccc(-c3ccccn3)n2)cc1 (stereo not drawn),3.3
20,Cc1nc(CNS(=O)(=O)c2ccc(F)cc2)cs1,> 43
21,CN(C)C(=O)CSc1ncccc1-c1nc2ccccc2[nH]1,42.6
22,CC(CNC(=O)c1ccco1)NC(=O)c1ccco1 (stereo not drawn),38.8
23,CN(c1ncnc(N)c1[N+](=O)[O-])C1CCCCC1,> 37.7

# Second part, the compound after the results:
row,solubility kinetic [µg/mL],SMILES
1,35.2,CC(c1ccccc1)n1c(CO)nc2ccccc21 (stereo not drawn)
2,> 29.7,CC(=O)Nc1nc(C)c(C(C)C)s1
3,> 41.4,O=[N+]([O-])c1ccc(SCCO)nc1SCCO
4,40.1,COc1ccc(OCC(O)CNC(=O)c2ccccc2)cc1 (stereo not drawn)
5,2,Cc1ccn2c(NC(=O)c3ccccc3)c(-c3ccccc3)nc2c1
6,41.1,O=S(=O)(c1cccc(C(F)(F)F)c1)c1ccc(O)cn1
7,44.7,CNC(=O)CSc1nc2cccnc2n1-c1ccc(F)cc1
8,> 41,O=C(Cc1ccc([N+](=O)[O-])cc1)c1ccc(O)cc1O
9,< 0.3,O=C(COc1ccc2ccccc2c1)Nc1cccnc1Cl
10,> 39.5,CNC(=S)NCCc1c[nH]c2ccc(OC)cc12
11,> 45.2,Cc1ccc(C)c(NC(=O)CCC(=O)NN=C2CCCC2)c1
12,8.9,Cc1ccc(S(=O)(=O)NCc2cn3ccccc3n2)c(C)c1
13,0.3,Cc1nc(Nc2ccccc2F)c2oc3ccccc3c2n1
14,> 42.1,CCc1ccc(NS(=O)(=O)c2c(C)noc2C)cc1
15,> 60.5,Cc1onc(-c2ccccc2)c1C(=O)N(C)CC(=O)Nc1ccc(F)c(F)c1F
16,> 52.6,CCN(CC(=O)NCCC1=CCCCC1)S(=O)(=O)c1ccccc1
17,42.8,CC(C)CCNC(=O)C1CCC(=O)N1CCc1ccccc1 (stereo not drawn)
18,> 42.7,CC1(NC(=S)Nc2ccccc2)CCS(=O)(=O)C1 (stereo not drawn)
19,> 50.4,O=C(CCCc1nc(-c2ccccc2Cl)no1)N1CCOCC1
20,> 57.1,Cc1ccc(NC(=O)Cc2ccsc2)cc1S(=O)(=O)N1CCOCC1
21,1.2,CCC1(CC)Cc2ccccc2-c2nc(CCl)[nH]c(=O)c21
22,41.2,O=C1CC2C(=O)NCCN2C(=NC(=O)c2ccccc2)N1 (stereo not drawn)
23,> 41.2,Cc1cc(C)c(NC(=O)CN2CCCCCC2)c(C)c1
24,0.8,Cc1nc2c(ccc3c([N+](=O)[O-])cccc32)c(C)c1C
25,< 0.3,Cn1c(=NC(=O)COc2ccccc2)sc2cccc(F)c21
26,26,O=C1NC2(CCCCCC2)C(=O)N1Cc1ccccc1F
27,< 0.7,COc1ccccc1C(=O)Nc1ccc(Br)cc1C

row,solubility kinetic [µg/mL],SMILES
1,> 41.6,CC1(C)Cc2nc3sc(C(N)=O)c(N)c3cc2CO1
2,17.7,C/C=C/C(=O)N(CC)c1ccccc1C
3,9.7,O=[N+]([O-])c1ccc(Cl)c(NC(=S)N2CCCC2)c1
4,> 50.6,Nn1c(SCC(=O)NC2CCCCCC2)nnc1C(F)(F)F
5,3.1,O=C1Nc2cc3c(cc2C1=O)sc1ccccc13
6,0.3,COc1ccc(NC(=O)C2CC(=O)n3c(nc4ccccc43)N2)cc1 (stereo not drawn)
7,> 52.9,Nc1cc(=O)[nH]c(SCC(=O)Nc2ccccc2-c2ccccc2)n1
8,> 36.5,O=C(O)Cn1c(=O)c2c(c3ccccc31)CCC2
9,> 54.5,CCOC(=O)N1CCN(C(=O)COC(=O)c2ccc(N(C)C)cc2)CC1
10,> 36.2,O=C(N/N=C\c1cccnc1)c1ccccc1O
11,15.6,COc1ccc(CCNC(=O)Nc2cccs2)c(OC)c1
12,> 48.3,O=C(COC(=O)c1ccc([N+](=O)[O-])o1)NCc1ccc(F)cc1
13,< 0.4,COc1ccc(C(=O)COc2ncnc3cc(Cl)ccc23)cc1
14,> 41.9,CCCNC(=O)Cn1sc2nc(C)cc(C)c2c1=O
15,> 45,Cc1nc([N+](=O)[O-])c(C(=O)OCc2ccccc2C#N)n1C
16,< 0.7,NC(=O)C(c1ccccc1)c1ccc(C(=O)c2ccccc2)cc1 (stereo not drawn)
17,17.1,CCOC(=O)/C=C1\SCC(=O)N1CC(=O)Nc1cccc(F)c1
18,> 56.6,COc1ccc(C2C(C(=O)O)c3ccccc3C(=O)N2Cc2ccco2)cc1 (stereo not drawn)
19,33.9,CCCN1CCc2c(sc3nc(SC)n(-c4ccccc4)c(=O)c23)C1
20,42.4,COc1ccc(NC(=S)N2c3ccccc3CC2C)cc1OC (stereo not drawn)
21,> 42.4,O=C(CC(=O)NCc1ccccc1)NCc1ccccc1
22,47.2,CCCOc1cccc(C(=O)Nc2ccc(CN3CCOCC3)cc2)c1
23,38.8,COc1ccc(Br)cc1CN1CCN(c2ncccn2)CC1
24,> 41.7,CC(C)Oc1ccccc1C1NC(=O)CCC1[N+](=O)[O-] (stereo not drawn)
25,29.3,Brc1ccc(C2NCCS2)cc1 (stereo not drawn)
26,> 45.6,O=C(O)CNC(=O)/C(=C\c1ccco1)NC(=O)c1ccco1
27,0.3,Cc1cc(C)nc(NC(=S)Nc2ccccc2)n1

# From PubChem BioAssay AID1996
